Data taken from patent publication US11718592B2, “Oxadiazole derivative” (Sumitomo Pharma Co., Ltd., priority 2020, dated 2023).
Where two headings read alike, the source gives them in different places.

Experiments:
GABA(A) receptors = assay: Evaluation of the potentiating effect on GABA(A) receptors (electrophysiology, GABA(A) receptor expressing cells); format: cell-based; details: for The potentiating effect on GABA(A) receptors EC20: concentration giving 20% increase of the current generated by 2 μM GABA; for Inhibition rate to the increased electric current by adding flumazenil: 2 μM GABA and test compound with 10 μM flumazenil; for inhibition of the potentiating effect on GABA(A) receptors with flumazenil (in words): benzodiazepine antagonist
Method: Using GABA(A) receptor expressing cells prepared according to Guideline for Generation of Stable Cell Lines (website of Lonza Japan; Non-patent Literature 4), the present test is done for evaluating the potentiating effect of a drug on GABA(A) receptors based on the electric current raised by GABA. The GABA(A) receptor expressing cells were used in electrophysiological study, wherein the electric current was measured when 2 μM GABA solution and then a mixture of 2 μM GABA and the test compound were added to the cells. […] In addition, the electric current generated by a mixture of 2 μM GABA solution and the test compound with 10 μM flumazenil was measured, and the inhibition rate for the electric current by adding flumazenil was calculated compared to the electric current obtained in the absence of flumazenil.

Slc: ddy male mice = details: mouse, in vivo, po, 1 h
Method: The present test is a test for evaluating whether the test compound may disturb coordinated movement or not. Rotarod is an apparatus equipped with a rotating columnar bar whose diameter is 4 cm, in which a mouse is made to walk on the rotating bar, and the coordinated movement is evaluated from the result of walking (can walk or cannot walk). Slc: ddy male mice (purchased from Japan SLC, Inc., body weight: 20-30 g) were trained 3 hours before the test starts so that they could walk on a rotarod apparatus rotating with a speed of 12 rotations per minute for 5 minutes without falling. Only the mice which can walk in the training are used in the test. The test compound was orally administered to a group consisting of 5 mice. […] To control mice, 0.5% methylcellulose solution was administered as test compound, and the same test was also done. The coordinated movement was evaluated with the average of the five mice's walking time (second).

BALB/c-Scn1a<+/−> mice = assay: Anticonvulsant effect in mouse model of Dravet syndrome with febrile seizures; format: in vivo; details: oral; for Difference of the threshold temperature of convulsion from that of the control group: at the dose for anticonvulsive effect, hyperthermia 50 minutes after dosing; for Dose for anticonvulsive effect: dose needed to raise the threshold body temperature for inducing febrile seizures significantly compared with the control group
Description: This is a test for evaluating the anticonvulsant effect for febrile seizures of the test compounds in a mouse model of Dravet syndrome. In this test, BALB/c-Scn1a<+/−> mice were used (catalog number: RBRC06422; they are available from RIKEN BioResource Research Center via the National BioResource Project). The present mouse model having a mutation in a responsible gene for Dravet syndrome, Scn1A, presents with symptoms similar to febrile seizures caused by hyperthermia which is a symptom in a patient suffering from Dravet syndrome, and can be used as an animal model of spontaneous Dravet syndrome (for reference: the Japan Epilepsy Research Foundation, Annual Report 2015: 26: 69-76). To male mice model of Dravet syndrome (one group: 5-8 mice, body weight: 20-30 g) were orally administered the test compound. 50 minutes later, the mice were put in a chamber warmed with hot bath to evoke hyperthermia, and observed about the development of febrile seizures. Immediately after febrile seizure was developed, the rectal temperature was measured and used as the threshold body temperature for inducing febrile seizures.

male Wister strain rats = assay: Antidepressant effect in rat forced swimming test; format: in vivo
Description: The present test can evaluate antidepressant effect of a drug. When a rat is thrown into a water bath from which the rat cannot escape to be made to swim, the rat takes on escape behavior in the beginning and then becomes immobile. Next day, when the rat is thrown into a water bath again, the immobility appears earlier than that of the first trial. The method can evaluate the antidepressant effect of a test compound by using the duration of the immobility time as an indicator of depressive behavior. A day before the test, male Wister strain rats (purchased from Charles River Laboratories Japan, body weight: 260-300 g) were made to swim in a water bath for 15 minutes. On the test day, the test compound was orally administered to the rats (10-12 rats in one group). An hour later, the rats were made to swim again for 5 minutes and each immobility time was measured. In the control group, 0.5% methylcellulose solution as the test compound was administered to the rats which were subjected to the same behavior test. The antidepressant effect was indicated by the average rate of deceasing the immobility time per that of the control group.

Structure (SMILES)	The potentiating effect on GABA(A) receptors EC20 (GABA(A) receptors)	average of the five mice's walking time (Slc: ddy male mice; 100 mg/kg)	Inhibition rate to the increased electric current by adding flumazenil (GABA(A) receptors)	also measured
CC(C)(C(N)=O)c1nc(-c2ccc(F)cc2)no1 [Example 1, 2-[3-(4-Fluorophenyl)-1,2,4-oxadiazol-5-yl]-2-methylpropanamide]	55 µM	180 s		
CC(C)(C(N)=O)c1nc(-c2ccc(Cl)cc2)no1 [Example 2, 2-[3-(4-chlorophenyl)-1,2,4-oxadiazol-5-yl]-2-methylpropanamide]	29 µM	180 s	<0%	Difference of the threshold temperature of convulsion from that of the control group (BALB/c-Scn1a<+/−> mice): 0.6 °C; Dose for anticonvulsive effect (BALB/c-Scn1a<+/−> mice): 50 mg/kg
CC(C)(C(N)=O)c1nc(-c2ccc(Br)cc2)no1 [Example 3, 2-[3-(4-bromophenyl)-1,2,4-oxadiazol-5-yl]-2-methylpropanamide]	29 µM	180 s	<0%	Difference of the threshold temperature of convulsion from that of the control group (BALB/c-Scn1a<+/−> mice): 0.7 °C; Dose for anticonvulsive effect (BALB/c-Scn1a<+/−> mice): 100 mg/kg
NC(=O)C1(c2nc(-c3ccc(F)cc3)no2)CC1 [Example 4, 1-[3-(4-fluorophenyl)-1,2,4-oxadiazol-5-yl]cyclopropane-1-carboxamide]	>100 µM	180 s		
NC(=O)C1(c2nc(-c3ccc(Cl)cc3)no2)CC1 [Example 5, 1-[3-(4-chlorophenyl)-1,2,4-oxadiazol-5-yl]cyclopropane-1-carboxamide]	>300 µM	180 s		
NC(=O)C1(c2nc(-c3ccc(Cl)cc3)no2)CC(F)C1 (centres unmarked) [Example 6, 1-[3-(4-chlorophenyl)-1,2,4-oxadiazol-5-yl]-3-fluorocyclobutane-1-carboxamide]	3.3 µM	180 s		
NC(=O)C1(c2nc(-c3ccc(Cl)cc3)no2)CC(F)(F)C1 [Example 7, 1-[3-(4-chlorophenyl)-1,2,4-oxadiazol-5-yl]-3,3-difluorocyclobutane-1-carboxamide]	5.4 µM	180 s		
NC(=O)C1(c2nc(-c3ccc(Cl)cc3)no2)CCC1 [Example 8, 1-[3-(4-chlorophenyl)-1,2,4-oxadiazol-5-yl]cyclobutane-1-carboxamide]	3.2 µM	180 s		
NC(=O)C1(c2nc(-c3ccc(Cl)cc3)no2)CCCC1 [Example 9, 1-[3-(4-chlorophenyl)-1,2,4-oxadiazol-5-yl]cyclopentane-1-carboxamide]	2.7 µM	180 s		
NC(=O)C1(c2nc(-c3ccc(F)cc3)no2)CCOCC1 [Example 10, 4-[3-(4-fluorophenyl)-1,2,4-oxadiazol-5-yl]tetrahydro-2H-pyran-4-carboxamide]	247 µM	180 s		
CC(C)(C(N)=O)c1noc(-c2ccc(F)cc2)n1 [Example 12, 2-[5-(4-fluorophenyl)-1,2,4-oxadiazol-3-yl]-2-methylpropanamide]	234 µM	180 s		
CC(C)(C(N)=O)c1noc(-c2ccc(Cl)cc2)n1 [Example 13, 2-[5-(4-chlorophenyl)-1,2,4-oxadiazol-3-yl]-2-methylpropanamide]	71 µM	180 s	<0%	Difference of the threshold temperature of convulsion from that of the control group (BALB/c-Scn1a<+/−> mice): 0.6 °C; Dose for anticonvulsive effect (BALB/c-Scn1a<+/−> mice): 50 mg/kg
CC(C)(C(N)=O)c1noc(-c2ccc(Br)cc2)n1 [Example 14, 2-[5-(4-bromophenyl)-1,2,4-oxadiazol-3-yl]-2-methylpropanamide]	32 µM	180 s		
CC(C)(C(N)=O)c1nnc(-c2ccc(Cl)cc2)o1 [Example 15, 2-[5-(4-chlorophenyl)-1,3,4-oxadiazol-2-yl]-2-methylpropanamide]	>300 µM	180 s		
CC(C)(c1nc(-c2ccc(F)cc2)no1)S(N)(=O)=O [Example 17, 2-[3-(4-Fluorophenyl)-1,2,4-oxadiazol-5-yl]propane-2-sulfonamide]	45 µM	180 s		
CC(C)(c1nc(-c2ccc(Cl)cc2)no1)S(N)(=O)=O [Example 18, 2-[3-(4-chlorophenyl)-1,2,4-oxadiazol-5-yl]propane-2-sulfonamide]	37 µM	180 s	<0%	
CC(C)(c1nc(-c2ccc(Br)cc2)no1)S(N)(=O)=O [Example 19, 2-[3-(4-bromophenyl)-1,2,4-oxadiazol-5-yl]propane-2-sulfonamide]	34 µM	180 s		
CC(C)(c1noc(-c2ccc(Cl)cc2)n1)S(N)(=O)=O [Example 20, 2-[5-(4-chlorophenyl)-1,2,4-oxadiazol-3-yl]propane-2-sulfonamide]	20 µM	180 s	55%	Difference of the threshold temperature of convulsion from that of the control group (BALB/c-Scn1a<+/−> mice): 0.6 °C; Dose for anticonvulsive effect (BALB/c-Scn1a<+/−> mice): 100 mg/kg
CC(C)(c1noc(-c2ccc(Br)cc2)n1)S(N)(=O)=O [Example 21, 2-[5-(4-bromophenyl)-1,2,4-oxadiazol-3-yl]propane-2-sulfonamide]	9.6 µM	180 s		
CC(C)(c1nnc(-c2ccc(F)cc2)o1)S(N)(=O)=O [Example 22, 2-[5-(4-fluorophenyl)-1,3,4-oxadiazol-2-yl]propane-2-sulfonamide]	>300 µM	180 s		
CC(C)(c1nnc(-c2ccc(Cl)cc2)o1)S(N)(=O)=O [Example 23, 2-[5-(4-chlorophenyl)-1,3,4-oxadiazol-2-yl]propane-2-sulfonamide]	190 µM	180 s		
CC(C)(c1nnc(-c2ccc(Br)cc2)o1)S(N)(=O)=O [Example 24, 2-[5-(4-bromophenyl)-1,3,4-oxadiazol-2-yl]propane-2-sulfonamide]	86 µM	180 s		
CN1C(=O)CCC1c1nc(-c2ccc(F)cc2F)no1 (centres unmarked) [Example 26, 5-[3-(2,4-difluorophenyl)-1,2,4-oxadiazol-5-yl]-1-methylpyrrolidin-2-one]	>100 µM			average of the five mice's walking time (Slc: ddy male mice; 50 mg/kg): 180 s
CN1C(=O)CCC1c1nc(-c2ccc(F)c(F)c2)no1 (centres unmarked) [Example 27, 5-[3-(3,4-difluorophenyl)-1,2,4-oxadiazol-5-yl]-1-methylpyrrolidin-2-one]	39 µM		<0%	average of the five mice's walking time (Slc: ddy male mice; 50 mg/kg): 180 s
CN1C(=O)CC(=O)N(c2ccccc2)c2cc(Cl)ccc21 [clobazam, reference compound]	0.34 µM		88%	inhibition of the potentiating effect on GABA(A) receptors with flumazenil (in words) (GABA(A) receptors): strongly inhibited
CN1C(=O)CN=C(c2ccccc2)c2cc(Cl)ccc21 [diazepam, reference compound]	0.03 µM		93%	potentiating effect on GABA(A) receptors (in words) (GABA(A) receptors): has the potentiating effect on GABA(A) receptors; inhibition of the potentiating effect on GABA(A) receptors with flumazenil (in words) (GABA(A) receptors): strongly inhibited; antidepressant effect / immobility time (in words) (male Wister strain rats; oral): did not show antidepressant effect; average rate of deceasing the immobility time per that of the control group (male Wister strain rats; oral 10 mg/kg, swim 5 minutes an hour later): 18.3
